Test results: patent US10350206B2, “Benzyl substituted indazoles as BUB1 inhibitors” (Bayer Pharma Aktiengesellschaft, priority 2014, dated 2019)

Legend:
[1] = target: T1, catalytic domain of human Bub1 (amino acids 704-1085) (Homo sapiens, UniProt O43683); assay: Equilibrium probe competition assay (TR-FRET kinase binding assay); details: read-out: Assay 5 IC50
T1 construct: catalytic domain of human Bub1 (amino acids 704-1085); His6 (N); made in house; host or cells: Hi5 insect cells
Description: The half-life of prodrugs (Table 3) poses a challenge for the verification of their biological activity. The Bub1 enzymatic activity assay (as per Biological Assay 1.0 infra) requires a minimum reaction time of 60 minutes in order to be able to assess the inhibitory activity of the compounds. During this time typically 20% to 60% of the prodrugs have been already converted to their corresponding drugs at the pH of 7.5 at which the assay is performed. Ideally one would perform the biological assay at a pH at which the prodrug is stable (e.g. pH 4). […] Alternatively, an assay requiring shorter incubation times would better estimate the binding affinities of the prodrugs. […] Extrapolating the stability data from Tables 3 and 4, one would expect at this time point most of the compound present in the test solution to be the prodrug.
FIGS. 1 and 2 combine the results from Biological Assay 5 with those from Biological Assay 6. The binding affinities over time of drug and prodrug pairs are shown as pIC50 together with the prodrug stability, and the pIC50 to be expected if only the drug present in the sample was responsible for the activity in the assay. Extrapolating the pIC50 from these graphs to time 0 (at which 100% of prodrug is present in the sample), the actual affinity of the drug and prodrug can be inferred. Secondly, looking at the differences between expected and real pIC50 an estimate can be made about the contribution of the prodrug to the observed activity.
Biological Assay 5.0: Equilibrium Probe Competition Assay:
Bub1 binding affinity of compounds described in the present invention were quantified using a time-resolved fluorescence energy transfer (TR-FRET) kinase binding assay which measures displacement of the synthetic fluorescent probe 5-[({2-[2-({2-[1-(4-ethoxy-2,6-difluorobenzyl)-1H-indazol-3-yl]-4-(pyridin-4-ylamino)pyrimidin-5-yl}oxy)ethoxy]ethyl}carbamothioyl)amino]-2-(6-hydroxy-3-oxo-3H-xanthen-9-yl)benzoic acid (6-5-1) by the (recombinant) catalytic domain of human Bub1 (amino acids 704-1085). The enzyme was expressed in Hi5 insect cells with N-terminal 6×His/AviTag® sequences, purified by affinity- (Ni-NTA) and size exclusion chromatography and site-specific biotinylated ex-vivo using a commercially available kit (Avidity).
In a typical assay 11 different concentrations of each compound (0.1 nM, 0.33 nM, 1.1 nM, 3.8 nM, 13 nM, 44 nM, 0.15 μM, 0.51 μM, 1.7 μM, 5.9 μM and 20 μM) were tested in duplicate within the same microtiter plate. To this end, 100-fold concentrated compound solutions (in DMSO) were made by serial dilution (1:3.4) of freshly prepared 2 mM stocks in a clear low volume 384-well source microtiter plate (Greiner Bio-One, Frickenhausen, Germany), from which 50 nl of compounds were transferred into a black low volume test microtiter plate from the same supplier. Subsequently 2 μL of a solution containing biotinylated Bub1 (the final concentration of Bub1 was adjusted depending on the activity of the enzyme lot in order to be within the linear dynamic range of the assay: typically ˜[…] were used) and 1 nM Streptavidin Terbium Cryptate (Cisbio, No. 610SATLB) in aqueous assay buffer [50 mM Tris/HCl pH 7.5, 200 mM potassium chloride (KCl), 1.0 mM dithiothreitol (DTT), 0.1 mM sodium ortho-vanadate, 1% (v/v) glycerol, 0.01% (w/v) bovine serum albumine (BSA), 0.005% (v/v) Triton X-100 (Sigma), were added to the compounds in the test plate and the mixture was incubated for 15 min at 22° C. to allow pre-equilibration of the putative enzyme-inhibitor complexes before the start of the probe competition reaction, which was initiated by the addition of 3 μL 1.67-fold concentrated solution (in assay buffer) of 6-5-1 (final concentration: 1.5 nM). The resulting mixture (5 μL final volume) was incubated at 22° C. during 0, 15, 30, 60, 120, 240 and 1440 min. […]

[2] = target: T1, catalytic domain of human Bub1 (amino acids 704-1085); assay: Bub1 kinase assay (TR-FRET); type: biochemical; details: 10 μM ATP, 60 min reaction, pH 7.5; read-out: Biological Assay 1: Bub1 kinase assay median IC50

Compound | IC50 ([1]; Time 15 min) | IC50 ([1]; Time 30 min) | IC50 ([1]; Time 60 min) | IC50 ([1]; Time 90 min) | IC50 ([1]; Time 120 min) | IC50 ([1]; Time 240 min) | IC50 ([1]; Time 1440 min) | IC50 [2]
COc1cnccc1Nc1nc(-c2nn(Cc3c(F)cc(OCCO)cc3F)c3ccccc23)ncc1OC [Example 2-1-3, 2-{3,5-difluoro-4-[(3-{5-methoxy-4-[(3-methoxypyridin-4-yl)amino]pyrimidin-2-yl}-1H-indazol-1-yl)methyl]phenoxy}ethanol] | 1.7 nM | 1.3 nM | 0.9 nM | 0.54 nM | 0.49 nM | 0.31 nM | 0.2 nM | 7.1 nM
COc1cnc(-c2nn(Cc3c(F)cc(OCCO)cc3F)c3ccccc23)nc1Nc1ccnc(C)c1 [Example 2-1-2, 2-{3,5-difluoro-4-[(3-{5-methoxy-4-[(2-methylpyridin-4-yl)amino]pyrimidin-2-yl}-1H-indazol-1-yl)methyl]phenoxy}ethanol] | 1.6 nM | 3.5 nM | 2.2 nM | 3.2 nM | 2.9 nM | 4 nM | 2.4 nM | 24 nM
